Common to all, as to test: ≥ marks a high value that may be exact or a test limit, other limits are often not marked, values filed in µg/mL are converted to µM
Assay [1] relates to Candida albicans ATCC 2002.
The subject of assay [2] is Candida albicans ATCC 90028.
Assay [3] has as its system Candida parapsilosis ATCC 22019.
Assay [4] deals with Enterobacter cloacae ATCC 13047.
Assay [5] has as its system Enterococcus faecalis ATCC 29212.
The test system of assay [6] is Escherichia coli ATCC 25922.
Assay [7] deals with Escherichia coli IS117#.
Assay [8] deals with Escherichia coli IS218#.
Assay [9] has as its system Escherichia coli IS37#.
The subject of assay [10] is Klebsiella pneumoniae ATCC 700603.
Assay [11] has as its system Pseudomonas aeruginosa ATCC 27853.
Assay [12] has as its system Pseudomonas aeruginosa CMCCB 1010.
The subject of assay [13] is Pseudomonas aeruginosa IS350#.
In assay [14] the test system is Shigella dysenteriae.
Assay [15] concerns Staphylococcus aureus ATCC 25923.
Assay [16] concerns Pseudomonas aeruginosa PAO1.
Assay [17] relates to Pseudomonas aeruginosa PAOLC1-6.
Assay [18] deals with Pseudomonas aeruginosa Ps1.
Assay [19] concerns Pseudomonas aeruginosa Ps21.
Assay [20] has as its system Pseudomonas aeruginosa Ps2.
Assay [21] deals with Pseudomonas aeruginosa Ps4.
For assay [22], the system named is Pseudomonas aeruginosa Ps64.
In assay [23] the test system is Pseudomonas aeruginosa Ps6.
Assay [24] relates to Pseudomonas aeruginosa Ps71.
The subject of assay [25] is Pseudomonas aeruginosa Ps74.
Assay [26] has as its system Pseudomonas aeruginosa TNP004.
In assay [27] the test system is Enterococcus faecium ATCC 700221.
For assay [28], the system named is Staphylococcus aureus ATCC 33591.
Assay [29] has as its system Bacillus subtilis KCTC 1918.
Assay [30] has as its system Candida albicans TIMM 1768.
In assay [31] the test system is Pseudomonas aeruginosa KCTC 1637.
Assay [32] deals with Salmonella typhimurium KCTC 1926.
In assay [33] the test system is Staphylococcus epidermidis KCTC 3096.
Assay [34] concerns Trichosporon beigelii KCTC 7707.
Assay [35] concerns Escherichia coli BW25113 ΔsbmA.
In assay [36] the test system is Escherichia coli BW25113 ΔwaaG.
For assay [37], the system named is Escherichia coli BW25113.
Assay [38] deals with Aspergillus flavus IFFI 4015.
Assay [39] deals with Bacillus megaterium.
Assay [40] deals with Klebsiella pneumoniae.
The subject of assay [41] is Penicillium urticae IFFI 2001.
In assay [42] the test system is Pseudomonas aeruginosa CMCCB 10104.
In assay [43] the test system is Staphylococcus aureus ATCC 2592.

Data on six compounds can be found in DBAASP.

Values after ≈ are worked out from the molar mass of the structure shown. Bounds are passed on as bounds.

Consider `CC[C@H](C)[C@@H]1NC(=O)[C@H](C)NC(=O)[C@@H](NC(=O)[C@H](Cc2ccccc2)NC(=O)[C@@H](NC(=O)[C@@H](NC(=O)[C@@H]2CCCN2C(=O)[C@@H](NC(=O)[C@@H](NC(=O)[C@H](CCCCN)NC(=O)CNC(=O)[C@H](CO)NC(=O)[C@@H](NC(=O)[C@H](CS)NC(=O)[C@H](CCC(=O)O)NC(=O)[C@H](CC(C)C)NC(=O)CNC(=O)[C@@H]2CCCN2C(=O)[C@H](CC(C)C)NC(=O)[C@@H](N)Cc2ccccc2)C(C)C)[C@@H](C)CC)C(C)C)[C@@H](C)O)C(C)C)CSSC[C@@H](C(=O)O)NC(=O)[C@H]([C@@H](C)CC)NC(=O)[C@H](CCCN=C(N)N)NC(=O)[C@H]([C@@H](C)O)NC1=O` [FLPGLECVSGKIVPTVFCAITRIC], for which the minimum inhibitory concentration (MIC) in assay [1] was determined as 1.95 µM (≈ 5 µg/mL); in assay [2], 3.9 µM (≈ 9.99 µg/mL); in [3], 3.9 µM (≈ 9.99 µg/mL); in [4] it was 3.9 µM (≈ 9.99 µg/mL); in [5] it was 3.9 µM (≈ 9.99 µg/mL); in assay [6], 0.974 µM (≈ 2.5 µg/mL). Further, the MIC in assay [7] was determined as 3.9 µM (≈ 9.99 µg/mL); in [8] it was 7.79 µM (≈ 20 µg/mL); in [9], 7.79 µM (≈ 20 µg/mL); in assay [10], 1.95 µM (≈ 5 µg/mL); in assay [11] it was 7.79 µM (≈ 20 µg/mL); in assay [12] it was 1.95 µM (≈ 5 µg/mL). The values for the minimal inhibitory concentration (MIC) in assay [13], in assay [14] and in [15] were 7.79 µM (≈ 20 µg/mL), 3.9 µM (≈ 9.99 µg/mL) and 1.95 µM (≈ 5 µg/mL), respectively.

Consider `NC(=O)[C@H](CCCN=C(N)N)NC(=O)[C@H](CCCN=C(N)N)NC(=O)[C@H](Cc1c[nH]c2ccccc12)NC(=O)[C@H](Cc1ccccc1)NC(=O)[C@H](CCCN=C(N)N)NC(=O)[C@H](CCCN=C(N)N)NC(=O)[C@H](Cc1c[nH]c2ccccc12)NC(=O)[C@@H](N)Cc1ccccc1` [FWRRFWRR], for which the MIC is 34.3 µM (≈ 44.9 µg/mL) in assay [16]; at least 34.3 µM in assay [17]; at least 34.3 µM in [18]; at least 135 µM in [19]; at least 135 µM in assay [20]; at least 47.7 µM in assay [21]. The minimum inhibitory concentration (MIC) is at least 135 µM in assay [22]; at least 34.3 µM in assay [23]; at least 34.3 µM in [24]; at least 135 µM in assay [25]; at least 34.3 µM in assay [26].

As for `CC[C@H](C)[C@H](NC(=O)[C@H](CCCCN)NC(=O)[C@H](CCCCN)NC(=O)[C@H](CC(C)C)NC(=O)[C@H](CC(C)C)NC(=O)[C@H](CCCCN)NC(=O)[C@H](CCCCN)NC(=O)[C@@H](NC(=O)[C@@H](NC(=O)[C@H](CC(=O)O)NC(=O)[C@H](Cc1ccccc1)NC(=O)[C@H](CC(C)C)NC(=O)CN)C(C)C)[C@@H](C)CC)C(=O)NCC(=O)NCC(=O)N[C@@H](CC(C)C)C(N)=O` [GLFDVIKKLLKKIGGL], the minimum inhibitory concentration (MIC) in [27] turned out to be 1.6 µM (≈ 2.79 µg/mL); in assay [6], 6.3 µM (≈ 11 µg/mL); in assay [11], 12.5 µM (≈ 21.8 µg/mL); in assay [28], 3.1 µM (≈ 5.4 µg/mL).

On to `CC(C)C[C@H](NC(=O)[C@H](Cc1ccccc1)NC(=O)[C@H](CCCCN)NC(=O)[C@@H]1CCCN1C(=O)[C@H](CCCCN)NC(=O)[C@H](CCCCN)NC(=O)[C@H](CCCCN)NC(=O)[C@H](CCCCN)NC(=O)[C@H](CCCCN)NC(=O)[C@H](CCCCN)NC(=O)[C@H](Cc1c[nH]c2ccccc12)NC(=O)[C@@H](N)CCCCN)C(N)=O` [KWKKKKKKPKFL], for which the minimum inhibitory concentration (MIC) amounted to 6.25 µM (≈ 9.91 µg/mL) in assay [29]; 25 µM (≈ 39.7 µg/mL) in assay [30]; 3.12 µM (≈ 4.95 µg/mL) in assay [31]; 2.21 µM (≈ 3.5 µg/mL) in assay [32]; 12.5 µM (≈ 19.8 µg/mL) in [33]; 25 µM (≈ 39.7 µg/mL) in [34].

For the compound `CC[C@H](C)[C@H](NC(=O)[C@H](CCCN=C(N)N)NC(=O)[C@@H](N)CCCN=C(N)N)C(=O)N[C@@H](CCCN=C(N)N)C(=O)N1CCC[C@H]1C(=O)N[C@@H](CCCN=C(N)N)C(=O)N1CCC[C@H]1C(=O)N1CCC[C@H]1C(=O)N[C@@H](CCCN=C(N)N)C(=O)N[C@@H](CC(C)C)C(=O)N1CCC[C@H]1C(=O)N[C@@H](CCCN=C(N)N)C(=O)N1CCC[C@H]1C(=O)N[C@@H](CCCN=C(N)N)C(=O)N1CCC[C@H]1C(=O)N[C@@H](CCCN=C(N)N)C(=O)N1CCC[C@H]1C(=O)N[C@@H](CC(C)C)C(=O)N1CCC[C@H]1C(=O)N[C@@H](Cc1ccc(O)cc1)C(=O)N1CCC[C@H]1C(=O)N[C@@H](CCCN=C(N)N)C(=O)N1CCC[C@H]1C(=O)O` [RRIRPRPPRLPRPRPRPLPYPRP], the MIC is 1 µM (≈ 2.9 µg/mL) in [6], 8 µM (≈ 23.2 µg/mL) in [35], 0.5 µM (≈ 1.45 µg/mL) in [36] and 1 µM (≈ 2.9 µg/mL) in assay [37].

Turning to `CC[C@H](C)[C@H](NC(=O)[C@H](CCCCN)NC(=O)[C@H](C)NC(=O)CNC(=O)[C@@H](NC(=O)[C@@H](N)CO)[C@@H](C)CC)C(=O)N[C@@H](CC(C)C)C(=O)NCC(=O)NCC(=O)N[C@H](C(=O)N[C@@H](CCCCN)C(=O)N[C@H](C(=O)N[C@@H](Cc1ccccc1)C(=O)N[C@@H](Cc1ccccc1)C(=O)N[C@@H](CCCCN)C(=O)NCC(=O)N[C@@H](C)C(=O)N[C@@H](CC(C)C)C(=O)N[C@@H](CCCCN)C(=O)N[C@@H](CCC(=O)O)C(=O)N[C@@H](CC(C)C)C(=O)N[C@@H](C)C(=O)N[C@@H](CO)C(=O)N[C@H](C(=O)N[C@@H](Cc1ccc(O)cc1)C(=O)N[C@@H](CC(C)C)C(=O)N[C@@H](CCC(N)=O)C(=O)O)[C@@H](C)O)[C@@H](C)O)C(C)C` [SIGAKILGGVKTFFKGALKELASTYLQ], the minimal inhibitory concentration (MIC) in assay [38] was 4.22 µM (≈ 12 µg/mL); in [39], 4.22 µM (≈ 12 µg/mL); in assay [1], 0.422 µM (≈ 1.2 µg/mL); in assay [40] it was 1.27 µM (≈ 3.6 µg/mL); in assay [41], 4.22 µM (≈ 12 µg/mL); in assay [42] it was 2.53 µM (≈ 7.2 µg/mL). Besides, the MIC in [14] was determined as 4.22 µM (≈ 12 µg/mL); in assay [43] it was 1.27 µM (≈ 3.6 µg/mL).

By MIC is commonly meant the lowest concentration that inhibits growth of the organism. A low value points to greater potency.
